The values below come from US7741047B2, “Method for treating autoimmune diseases and screening method for preventive or therapeutic agent for the same” (Kowa Co., Ltd., priority 2003, dated 2010).

Series [1] has as its system RHO cells (RBAp48-stable cell line from HSG cells). The experiment in a line: Apoptosis of RBAp48-stable cell line after addition of IPTG. The series is classed as cell-based, human. The conditions noted are these: from two hours to twelve hours after addition of IPTG. An excerpt:
(§1) A stable cell line in which RBAp48 expression is stably regulated by addition of IPTG to the culture system is established by means of LacSwitch II Inducible Mammalian Expression System (STRATEGENE) through use of HSG cells (RHO cell). […] Separately, the RHO cells were investigated in terms of cell cycle related molecules (i.e., RBs, phosphorylated RB, CyclinD3, and p19ARF) in the cell lysates six hours after addition of IPTG, through western blotting by use of the corresponding antibodies (BD Transduction Laboratory). […] In addition, a nuclear extract of IPTG-added RHO cells was subjected to gel shift assay.

In series [2] the test system is MSG:B6, ERαKO, HSG, MCF-7, Jurkat, HT-29 and Colo201 cells. Put plainly: Apoptosis induction of cultured cells, positive control groups. Type of series: cell-based. Conditions: staurosporin 10^−6 M, all cell groups, not differing from one group to another. As to the method:
(§2) Cells of each of the following cell lines were cultured through a routine method; mouse salivary gland cell lines (MSG:B6 and ERαKO); human salivary gland cell line (HSG); human breast cancer cultured-cell line (MCF-7); human acute T cell leukemia cell line (Jurkat); and human colon cancer cultured-cell lines (HT-29 and Colo201). The cultured cells were reacted with tamoxifen (Tam, final concentration: 10^−7 M), an antagonist of estrogen. […] Separately, the above cultured cells were reacted with staurosporin (an apoptosis inducer, final concentration: 10^−6 M), and the resultant cells were used as a positive control group. Forty-eight hours after the addition of Tam, apoptosis of the cells was determined by means of a flow cytometer, by use of Annexin-V-FITC.

The test system of series [3] is human breast cancer cultured-cell line (MCF-7). Conditions: MCF-7 cells, previously known; cited from earlier work.
The subject of another series is RBAp48 mRNA in HSG cells. The experiment in a line: Northern blotting of genes with enhanced expression by anti-estrogen effect. Type of series: cell-based, human.
The test system of series [4] is human salivary gland cell line (HSG). The experiment in a line: Apoptosis induction of cultured cells, Annexin-V-FITC flow cytometry. Type of series: cell-based. The conditions noted are these: Tam 10^−7 M, 48 hours after addition, compared with groups without Tam. The procedure:
as §2
A general note: Flow cytometry measures light scatter and fluorescence of single cells or particles in a stream.

The subject of series [5] is ERαKO-mouse-derived MSG cells. The series is described as above. The series is classed as cell-based. The conditions noted are these: Tam 10^−7 M, 48 hours. The procedure: as §2
For series [6], the system named is mouse salivary gland cell line MSG (B6). Described as above. Type of series: cell-based. The conditions noted are these: Tam 10^−7 M, 48 hours after addition, compared with groups without Tam. The procedure: as §2
For series [7], the system named is RHO cells (RBAp48-stable cell line from HSG cells). The experiment in a line: Effect of siRNA on RBAp48-induced apoptosis, Annexin-V-FITC flow cytometry. The series is classed as cell-based, human. The conditions noted are these: 50 nM siRNA by lipofection, IPTG 24 h after transfer, culture 8 h.
Excerpt: as §1
siRNA of RBAp48 was prepared (sense; CGAGGAAUACAAAAUAUGGTT (SEQ ID NO: 1), antisense; CCAUAUUCUGUAUUCCUCGTT (SEQ ID NO: 2)). […] The percent apoptotic cells of the cultured cells was determined by means of a flow cytometer, by use of Annexin-V-FITC.

With `CC(C)S[C@@H]1O[C@H](CO)[C@H](O)[C@H](O)[C@H]1O` [IPTG, isopropyl-β-D-thiogalactoside], the percent apoptotic cells entry in series [1] is on record as “increase over time”.

On to `CN[C@@H]1C[C@H]2O[C@@](C)([C@@H]1OC)n1c3ccccc3c3c4c(c5c6ccccc6n2c5c31)C(=O)NC4` [staurosporin], for which the percent apoptotic cells entry in series [2] is on record as “high”.

As for `CC/C(=C(\c1ccccc1)c1ccc(OCCN(C)C)cc1)c1ccccc1` [tamoxifen], the apoptosis induction entry in series [3] is given as “known to be induced”; in series [5], “not to be induced”. In addition, the “mRNA (RBAp48 gene) expression” value with RBAp48 mRNA in HSG cells (tamoxifen 10^−7 M, northern blotting) is recorded as “enhanced expression”. Further, the “RBAp48 mRNA expression” value in the series on RBAp48 mRNA in HSG cells (two hours after Tam stimulation) is given as “strong RBAp48 mRNA expression”. Besides, the percent apoptotic cells entry in series [4] and in series [6] was “significantly high” throughout.

Consider “RBAp48 siRNA: siRNA of RBAp48: sense CGAGGAAUACAAAAUAUGGTT (SEQ ID NO: 1), antisense CCAUAUUCUGUAUUCCUCGTT (SEQ ID NO: 2)”, for which, in series [7], the “apoptosis induced by addition of IPTG” value is on record as “significantly suppressed”.
